Measured values published in ChEMBL document CHEMBL1146779, “Bridgehead-methyl analog of SC-53116 as a 5-HT4 agonist” (Bioorg Med Chem Lett, 2004).

Columns and labels:
[1] = biological target: Serotonin 1 (5-HT1) receptor (Rattus norvegicus, UniProt P28564+P30940+P19327+P28565); experiment: Compound was evaluated for 5-hydroxytryptamine 1 receptor binding; format: protein assay
D(2) dopamine receptor = D(2) dopamine receptor (Homo sapiens, UniProt P14416); experiment: Compound was evaluated for Dopamine receptor D2 binding
[2] = biological target: T1, Adrenergic receptor alpha-2 (Homo sapiens, UniProt P08913+P18825+P18089); experiment: Compound was evaluated for alpha-2 adrenergic receptor binding; format: protein assay
T1 sequence (P08913 whole entry): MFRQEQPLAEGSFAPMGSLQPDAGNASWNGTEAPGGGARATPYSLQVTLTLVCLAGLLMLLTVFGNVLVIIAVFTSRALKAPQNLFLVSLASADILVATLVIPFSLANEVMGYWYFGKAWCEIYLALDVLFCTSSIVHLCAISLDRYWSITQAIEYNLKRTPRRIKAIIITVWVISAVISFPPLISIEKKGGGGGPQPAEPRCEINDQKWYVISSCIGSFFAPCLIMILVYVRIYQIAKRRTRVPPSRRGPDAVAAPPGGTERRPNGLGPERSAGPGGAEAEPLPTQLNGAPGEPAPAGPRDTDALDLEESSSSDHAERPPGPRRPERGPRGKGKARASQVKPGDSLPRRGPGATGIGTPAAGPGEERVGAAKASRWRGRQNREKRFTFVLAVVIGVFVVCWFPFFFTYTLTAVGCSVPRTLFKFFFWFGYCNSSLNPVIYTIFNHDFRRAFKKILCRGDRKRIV
T1 sequence (P18825 whole entry): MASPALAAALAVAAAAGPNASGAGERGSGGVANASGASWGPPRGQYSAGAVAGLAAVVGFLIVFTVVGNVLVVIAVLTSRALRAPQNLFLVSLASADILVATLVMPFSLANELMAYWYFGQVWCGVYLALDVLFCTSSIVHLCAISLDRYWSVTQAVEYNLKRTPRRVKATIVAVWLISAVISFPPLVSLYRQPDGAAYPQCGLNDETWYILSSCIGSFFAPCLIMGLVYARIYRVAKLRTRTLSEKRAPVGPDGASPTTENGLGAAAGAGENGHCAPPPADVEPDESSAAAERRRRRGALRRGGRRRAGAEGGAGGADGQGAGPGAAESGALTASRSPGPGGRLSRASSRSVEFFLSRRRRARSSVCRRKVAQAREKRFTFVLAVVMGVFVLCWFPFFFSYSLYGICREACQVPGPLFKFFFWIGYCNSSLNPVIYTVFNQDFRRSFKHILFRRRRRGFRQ
T1 sequence (P18089 whole entry): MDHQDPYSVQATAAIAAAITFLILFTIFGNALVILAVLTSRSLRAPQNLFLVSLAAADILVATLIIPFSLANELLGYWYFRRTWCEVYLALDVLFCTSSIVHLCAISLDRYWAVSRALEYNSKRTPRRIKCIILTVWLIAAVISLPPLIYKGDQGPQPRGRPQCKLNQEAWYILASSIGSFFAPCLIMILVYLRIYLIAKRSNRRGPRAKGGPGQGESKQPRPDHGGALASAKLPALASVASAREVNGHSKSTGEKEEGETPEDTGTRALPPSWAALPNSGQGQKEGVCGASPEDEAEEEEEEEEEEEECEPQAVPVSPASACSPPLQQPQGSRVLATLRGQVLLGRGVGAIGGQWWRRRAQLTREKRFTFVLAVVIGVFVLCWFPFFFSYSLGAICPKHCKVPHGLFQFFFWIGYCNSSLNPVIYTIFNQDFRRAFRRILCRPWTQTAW

[3] = biological target: Serotonin 2 (5-HT2) receptor (Homo sapiens, UniProt P41595+P28223+P28335); experiment: Compound was evaluated for 5-hydroxytryptamine 2 receptor binding; format: protein assay
[4] = biological target: T2, 5-hydroxytryptamine receptor 4 (Rattus norvegicus, UniProt Q62758); experiment: Tested for agonist activity at the 5-hydroxytryptamine 4 receptor in the rat tunica muscularis mucosae (TMM) assay of racemate mixture; format: functional
[5] = biological target: T3, Adrenergic receptor alpha-1 (Homo sapiens, UniProt P35348+P25100+P35368); experiment: Compound was evaluated for alpha-1 adrenergic receptor binding; format: protein assay
T3 sequence (P35348 whole entry): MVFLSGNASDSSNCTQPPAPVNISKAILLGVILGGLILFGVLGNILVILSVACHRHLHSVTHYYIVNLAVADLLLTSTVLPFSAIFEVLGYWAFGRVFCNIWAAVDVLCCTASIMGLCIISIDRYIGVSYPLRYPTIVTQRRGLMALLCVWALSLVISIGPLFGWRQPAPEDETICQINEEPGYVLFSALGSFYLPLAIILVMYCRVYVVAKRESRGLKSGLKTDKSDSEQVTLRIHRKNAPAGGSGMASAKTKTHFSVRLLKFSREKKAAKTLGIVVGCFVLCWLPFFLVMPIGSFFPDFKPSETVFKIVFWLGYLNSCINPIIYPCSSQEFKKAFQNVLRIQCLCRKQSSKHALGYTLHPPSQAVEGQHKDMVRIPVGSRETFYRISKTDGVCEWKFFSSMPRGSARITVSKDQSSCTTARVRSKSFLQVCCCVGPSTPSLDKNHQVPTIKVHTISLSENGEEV
T3 sequence (P25100 whole entry): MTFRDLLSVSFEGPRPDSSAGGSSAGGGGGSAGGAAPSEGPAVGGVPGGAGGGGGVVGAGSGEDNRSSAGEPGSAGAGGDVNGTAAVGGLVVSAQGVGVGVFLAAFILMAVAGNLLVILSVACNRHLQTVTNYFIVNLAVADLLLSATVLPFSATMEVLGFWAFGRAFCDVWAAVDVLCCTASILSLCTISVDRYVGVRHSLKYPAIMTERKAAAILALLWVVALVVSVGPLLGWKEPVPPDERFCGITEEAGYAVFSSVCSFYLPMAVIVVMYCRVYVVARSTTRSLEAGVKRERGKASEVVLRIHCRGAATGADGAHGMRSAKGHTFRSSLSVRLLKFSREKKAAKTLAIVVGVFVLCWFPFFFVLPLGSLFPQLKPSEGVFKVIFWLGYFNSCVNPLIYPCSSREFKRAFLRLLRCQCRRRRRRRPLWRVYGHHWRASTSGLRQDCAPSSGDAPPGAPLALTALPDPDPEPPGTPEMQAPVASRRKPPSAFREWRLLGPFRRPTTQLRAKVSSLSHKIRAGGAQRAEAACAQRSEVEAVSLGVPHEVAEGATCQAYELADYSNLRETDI
T3 sequence (P35368 whole entry): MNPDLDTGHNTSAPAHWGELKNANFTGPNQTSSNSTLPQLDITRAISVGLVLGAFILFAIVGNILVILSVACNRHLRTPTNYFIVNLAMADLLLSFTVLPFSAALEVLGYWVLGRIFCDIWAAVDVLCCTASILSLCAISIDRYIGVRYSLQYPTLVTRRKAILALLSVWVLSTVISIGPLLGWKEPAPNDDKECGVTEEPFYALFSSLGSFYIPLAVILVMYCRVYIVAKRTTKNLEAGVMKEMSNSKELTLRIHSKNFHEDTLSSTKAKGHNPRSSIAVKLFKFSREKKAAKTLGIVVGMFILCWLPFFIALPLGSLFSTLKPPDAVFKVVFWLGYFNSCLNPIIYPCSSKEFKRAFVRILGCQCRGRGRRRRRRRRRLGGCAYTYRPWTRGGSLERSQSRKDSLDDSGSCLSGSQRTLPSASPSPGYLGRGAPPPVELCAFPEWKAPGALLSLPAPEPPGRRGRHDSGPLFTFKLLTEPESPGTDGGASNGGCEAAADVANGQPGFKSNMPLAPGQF

[6] = biological target: T2, 5-hydroxytryptamine receptor 4; experiment: Compound was tested for agonist activity at the 5-hydroxytryptamine 4 receptor in the rat tunica muscularis mucosae (TMM) assay; format: functional, tissue-based, Muscularis mucosa
D(1A) dopamine receptor = D(1A) dopamine receptor (Homo sapiens, UniProt P21728); experiment: Compound was evaluated for Dopamine receptor D1 binding
Adrenergic receptor beta = Adrenergic receptor beta (Homo sapiens, UniProt P08588+P07550+P13945); experiment: Compound was evaluated for Beta adrenergic receptor binding; format: protein assay
[7] = biological target: Serotonin 3 (5-HT3) receptor; experiment: Compound was evaluated for 5-hydroxytryptamine 3 receptor binding; format: protein-complex assay
[8] = biological target: T2, 5-hydroxytryptamine receptor 4; experiment: Compound was tested for agonist activity at the 5-hydroxytryptamine 4 receptor in the rat tunica muscularis mucosae (TMM) assay; IN = Inactive; format: functional, tissue-based, Muscularis mucosa

T2 sequence (Q62758 whole entry): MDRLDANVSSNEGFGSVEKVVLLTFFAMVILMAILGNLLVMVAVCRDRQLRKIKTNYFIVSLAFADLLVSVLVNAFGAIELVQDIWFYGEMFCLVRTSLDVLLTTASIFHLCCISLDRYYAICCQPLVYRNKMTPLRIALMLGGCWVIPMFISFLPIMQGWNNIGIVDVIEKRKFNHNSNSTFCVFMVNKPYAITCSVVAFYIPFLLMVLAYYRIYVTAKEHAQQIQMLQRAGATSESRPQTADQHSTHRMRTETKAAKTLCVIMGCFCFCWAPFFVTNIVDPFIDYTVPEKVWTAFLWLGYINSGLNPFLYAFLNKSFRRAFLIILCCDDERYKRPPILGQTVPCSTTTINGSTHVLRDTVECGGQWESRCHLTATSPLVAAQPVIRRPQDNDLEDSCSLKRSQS
D(1A) dopamine receptor, sequence (P21728 whole entry): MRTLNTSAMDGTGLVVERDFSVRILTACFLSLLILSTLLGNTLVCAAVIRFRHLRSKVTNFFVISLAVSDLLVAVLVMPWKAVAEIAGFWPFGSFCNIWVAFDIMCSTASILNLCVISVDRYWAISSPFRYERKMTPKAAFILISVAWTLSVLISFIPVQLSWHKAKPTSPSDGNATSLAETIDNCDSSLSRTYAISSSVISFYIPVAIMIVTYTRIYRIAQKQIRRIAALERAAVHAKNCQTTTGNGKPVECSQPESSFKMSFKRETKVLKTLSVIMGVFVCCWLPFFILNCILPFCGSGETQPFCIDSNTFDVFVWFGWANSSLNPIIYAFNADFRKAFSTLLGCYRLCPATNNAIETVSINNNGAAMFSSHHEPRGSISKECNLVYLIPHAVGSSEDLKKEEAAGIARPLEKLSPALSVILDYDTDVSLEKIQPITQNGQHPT
D(2) dopamine receptor, sequence (P14416 whole entry): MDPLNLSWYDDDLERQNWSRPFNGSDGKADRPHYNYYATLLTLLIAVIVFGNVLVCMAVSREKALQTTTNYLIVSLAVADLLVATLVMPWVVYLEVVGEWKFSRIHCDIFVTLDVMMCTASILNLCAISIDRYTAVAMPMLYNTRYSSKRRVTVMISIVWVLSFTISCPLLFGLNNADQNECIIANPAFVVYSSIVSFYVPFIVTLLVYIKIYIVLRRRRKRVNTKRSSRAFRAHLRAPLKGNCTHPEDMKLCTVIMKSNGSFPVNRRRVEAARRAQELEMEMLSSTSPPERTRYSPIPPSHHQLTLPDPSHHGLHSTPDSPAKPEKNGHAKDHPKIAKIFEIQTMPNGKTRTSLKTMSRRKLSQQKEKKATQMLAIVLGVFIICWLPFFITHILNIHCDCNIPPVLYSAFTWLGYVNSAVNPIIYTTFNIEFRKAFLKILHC

SMILES	Ki [1] [nM]	Ki (D(2) dopamine receptor) [nM]	Ki [2] [nM]	Ki [3] [nM]	EC50 [4] [nM]	Ki [5] [nM]	EC50 [6] [nM]	Ki (D(1A) dopamine receptor) [nM]	Ki (Adrenergic receptor beta) [nM]	Ki [7] [nM]	EC50 [8]
COc1cc(N)c(Cl)cc1C(=O)NC[C@@H]1CCN2CCC[C@@H]12	> 10000	> 10000	> 10000	> 10000	66	> 10000	23	> 10000	> 10000	152	
COc1cc(N)c(Cl)cc1C(=O)N[C@@H]1C2CC3CN(C2)CC31 (some centres not stated)											Not Active
COc1cc(N)c(Cl)cc1C(=O)NC[C@@H]1CCN2CCC[C@@]12C (racemic)							449				
